Test results reported in US20110060000A1, “ACRIDINE ANALOGS IN THE TREATMENT OF GLIOMAS” (priority 2009, published 2011).

Assays:
[1] = test system: subcutaneous U87-MG gliomas; assay: Mice bearing subcutaneous U87-MG gliomas; format: in vivo
Source text: The estimated survival prolongment is 14 days in mice life which compares at 851 days in human life based on a life expectancy of 18 months in mice and 90 years in human. Also, since one animal was tumor-free at the end of the treatment that translates in an expected 16% cure rate.
FIG. 29a graphs % tumor weight/control as a function of days after implantation. […] Such a profile indicates effectiveness in vivo for both treatment and for prevention of relapse. FIG. 29b graphs % animal survival as a function of days after implantation. […] Such a profile indicates effectiveness in vivo for both treatment and for prevention of relapse.
Mice bearing subcutaneous gliomas were received daily oral administration of 200 mg/kg of quinacrine. […] In FIG. 29 is shown the effect of 100 mg/kg of quinacrine and 10 mg/kg 9-aminoacridine in Mice bearing subcutaneous U87-MG gliomas.

[2] = test system: NF-κB; conditions: tumor cells; cited from earlier work
[3] = test system: DNA; conditions: cited from earlier work
[4] = test system: tumor cells; conditions: in vitro and in vivo; cited from earlier work
[5] = test system: p53; conditions: cited from earlier work
[6] = test system: U87-MG skin xenograft tumor explants; assay: U87-MG skin xenograft tumor explants, ERSR markers; format: in vivo, mice; conditions: samples after 7 and 21 days
Source text: U7 represents vehicle treated sample after 7 days. U21 represents vehicle treated sample after 21 days. Q7 represents quinacridine-treated sample after 7 days. Q21 represents quinacridine-treated sample after 21 days. 9AA-7 represents 9-aminoacridine-treated sample after 7 days. 9AA-21 represents 9-aminoacridine-treated sample after 21 days.

[7] = test system: gliomas; conditions: in association with established anti-glioma medications; cited from earlier work
[8] = full dose over about 45 days, Q oral, 9-AA I.P.
[9] = half dose (maintenance dose) up to about 60 days

Row | SMILES | cure rate ([1]; 10 mg/kg 9-aminoacridine) [%] | antiglioma action ([1]; 100 mg/kg of quinacrine and 10 mg/kg 9-aminoacridine) | tumor once survival rate stabilized ([1]; 9-AA I.P.) | animal survival rate compared to control [1, 8] | tumor size compared to control [1, 8] | animal survival rate compared to control [1, 9] | tumor size compared to control [1, 9] | stimulated and basal constitutive NF-κB activity [2] | DNA damaging activity [3] | toxicity to tumor versus normal cells [4] | p53 activation and p53-dependent killing of tumor cell types [5] | ERSR activation and GRP78 target protein in tumor explants [6] | caspase 12 activation in tumor explants [6] | patient survival [7]
1 | Nc1c2ccccc2nc2ccccc12 [9-aminoacridine] | 77 | powerful antiglioma action | no sign of tumor | increased survival rate | decrease in tumor size | survival rate was high | tumor size remained relatively constant | block stimulated NF-κB activity and also effectively reduce basal levels of constitutive NF-κB activity | not found to show DNA damaging activity | more toxic to tumor than to normal cells | capable of p53 activation and p53-dependent killing | activaiton of ERSR and changes in GRP78 target protein | activation of caspase 12 is evident | –
2 | CCN(CC)CCCC(C)Nc1ccnc2cc(Cl)ccc12 (centres unmarked) [Chloroquine] | – | – | – | – | – | – | – | – | – | – | – | – | – | patient survival was significantly prolonged
